The values below come from patent US20110230367A1, “Amphiphilic Peptides Promoting Production of Target miRNA and Method of Regulating Production of Target miRNA” (SNU R&DB FOUNDATION, priority 2009, published 2011).

The target of one test is pre-let7a-1. Kind of test: Dissociation constant by competitive fluorescence anisotropy with rhodamine-rev peptide probe. It counts as binding. Conditions: Table 3, first generation peptides, 20° C., HEPES pH 7.5; read-out: Kd value with pre-let7a-1. The protocol: (§1) The binding affinity between the peptide synthesized in <Example 1> and pre-miRNA from <Example 2> were measured by fluorescence anisotropy using competitive binding method. A rev peptide with rhodamine attached at the N-terminal was used as a fluorescent probe and LS-55 luminescence spectrometer from Perkin-Elmer was use for analysis. A constant temperature of 20° C. was maintained by a water bath. The fluorescent intensity was measured by of 200 nM of rhodamine-rev peptide was measured with an excitation wavelength at 550 nm (band path 10 nm) and detection at 580 nm (band path 10 nm). The integration time […]. Each experimental value is the mean value of 5 measurements. A 20 mM of HEPES{4-(2-hydroxyethyl)-1-piperazineethanesulfonic acid} buffer (pH 7.5) containing 140 mM NaCl, 5 mM KCl and 1 mM MgCl2 was used for measuring the dissociation constant. The dissociation constant was determined according to the Mathematical Formula 1 and using Kaledia graph.
(§2) A and Ao are the fluorescence anistropy in the presence or absence of RNA, whereas ΔA is the difference between these two values. [RNA]0 and [Rh-rev]0 are initial concentrations of RNA and rev peptide binding with rhodamine.
(§3) According the method described in <Example 3>, the dissociation constant between second generation peptide and 2 pre-miRNAs synthesized from <Example 2> was determined using fluorescent polarization detection method and fluorescent probe molecule.
On the technique in general: Polarisation of emitted light reports the rotation of a fluorescent probe.

The target in a further test is pre-miR16-1. The test is described as above. The class given is binding. Conditions: Table 3, first generation peptides, 20° C., HEPES pH 7.5; read-out: Kd value with pre-miR16-1. Here is the method: as §1, §2, §3
Test [1] has as its system recombinant human Dicer processing pre-let7a-1. The test is described as follows: Dicer activity assay in the presence of peptide, substrate pre-let7a-1. The class given is biochemical. Conditions: 400 nM peptide, pre-let7a-1 substrate, FIG. 2. The protocol: Two types of pre-miRNA (pre-let7a-1, pre-miR16-1) used as the substrate for the Dicer enzyme activity assay was ordered and manufactured by ST Pharm Co., Ltd (FIG. 1). For Dicer activity assay, the 5′ end of the synthesized pre-miRNA was labeled with ^32p isotope. Two pmole of each pre-miRNA was isotope labeled with […] of [g-^32P]ATP (New England Biolabs) using 10 units of T4 polynucleotide kinase (New England Biolabs). Total volume of 10 μl was isotope labeled for 1 hr at 37° C. The isotope labeled RNA obtained after the reaction was purified using G-25 Sephadex column (Sigma). The purified substrate was used for measuring Dicer enzyme activity. Total reaction mixture of 30 μl containing 1 nM of isotope labeled pre-miRNA and 0.001 u/μl of recombinant human Dicer (Genlantis, CA, USA) were incubated at 37° C. in 24 mM 4-(2-hydroxyethyl)-1-piperazineethanesulfonic acid, HEPES) buffer system containing 200 mM NaCl, 0.04 mM EDTA, 1 mM ATP and 2.5 mM MgCl2(pH 8.0). After reacting for 0, 10, 30, […], 3 μl of each reaction mixture was mixed with 5 μl of RNA gel loading buffer {95% formamide, 10 mM ethylenediaminetetraacetic acid (EDTA), 0.05% FF (xylene cyanol FF)} and incubated for 5 min at 65° C. The amount of the reaction product was determined by gel running in 15% polyacrylamide gel containing 7M urea, and then the initial reaction velocity (V0) from each reaction was compared. The initial reaction velocity (V0) of the enzyme is the reaction velocity of the initial linear time (until 30 min). Each initial velocity was normalized with the initial velocity from each substrate condition without peptide treatment. The initial reaction velocity of Dicer for pre-let7a-1 and pre-miR16-1 without peptide treatment were […] and 0.018 fmole/min, respectively. Each of the initial reaction velocity is a mean data of more than 3 measurements, and the standard deviation is shown as error bars.

In test [2] the test system is recombinant human Dicer processing pre-miR16-1. Kind of test: Dicer activity assay in the presence of peptide, substrate pre-miR16-1. The class given is biochemical. Particulars: 400 nM peptide, pre-miR16-1 substrate, FIG. 2. Here is the method:
Two types of pre-miRNA (pre-let7a-1, pre-miR16-1) used as the substrate for the Dicer enzyme activity assay was ordered and manufactured by ST Pharm Co., Ltd (FIG. 1). For Dicer activity assay, the 5′ end of the synthesized pre-miRNA was labeled with ^32p isotope. Two pmole of each pre-miRNA was isotope labeled with […] of [g-^32P]ATP (New England Biolabs) using 10 units of T4 polynucleotide kinase (New England Biolabs). Total volume of 10 μl was isotope labeled for 1 hr at 37° C. The isotope labeled RNA obtained after the reaction was purified using G-25 Sephadex column (Sigma). The purified substrate was used for measuring Dicer enzyme activity. Total reaction mixture of 30 μl containing 1 nM of isotope labeled pre-miRNA and 0.001 u/μl of recombinant human Dicer (Genlantis, CA, USA) were incubated at 37° C. in 24 mM 4-(2-hydroxyethyl)-1-piperazineethanesulfonic acid, HEPES) buffer system containing 200 mM NaCl, 0.04 mM EDTA, 1 mM ATP and 2.5 mM MgCl2(pH 8.0). After reacting for 0, 10, 30, 60 or 120 min in the presence of 400 nM concentration of 2b or 2c peptide, 3 μl of each reaction mixture was mixed with 5 μl of RNA gel loading buffer {95% formamide, 10 mM ethylenediaminetetraacetic acid (EDTA), 0.05% FF (xylene cyanol FF)} and incubated for 5 min at 65° C. The amount of the reaction product was determined by gel running in 15% polyacrylamide gel containing 7M urea, and then the initial reaction velocity (V0) from each reaction was compared. The initial reaction velocity (V0) of the enzyme is the reaction velocity of the initial linear time (until 30 min). Each initial velocity was normalized with the initial velocity from each substrate condition without peptide treatment. The initial reaction velocity of Dicer for pre-let7a-1 and pre-miR16-1 without peptide treatment were […] and 0.018 fmole/min, respectively. Each of the initial reaction velocity is a mean data of more than 3 measurements, and the standard deviation is shown as error bars.

pKd: −log10 of the molar value.

“LKKLLKLWKKLLKLAG [Peptide 1e, Ac-LKKLLKLWKKLLKLAG]”: the pKd (commonly the Kd on a negative log10 scale, so that one unit is a factor of ten) on pre-let7a-1 was 7.70; on pre-miR16-1, 7.57. Also, the “initial reaction velocity (V0) of Dicer, normalized to no peptide” value in test [1] and in test [2] was “did not increase” in each case.
